# From patent publication US20240100193A1, “Self-complementary AAV vectors carrying dominant negative RhoA and methods of use to treat ocular diseases” (iView Therapeutics, Inc., priority 2022, published 2024)
# System: ROCK
# Assay: ROCK Activity Assay Kit on HTM cell lysates treated with ROCK activator or inhibitor
# Format: biochemical, human
# Conditions: for relative ROCK activity normalized to the no drug treated cell lysate: HTM cell lysate
# Experimental: The ROCK Activity Assay Kit is an enzyme immunoassay developed for detection of the specific phosphorylation of MYPT1 at Thr696 by ROCK. A strip-well microtiter plate is precoated with a recombinant MYPT1. After incubating the substrate wells with ROCK samples, the phosphorylated MYPT1 is detected by an anti-phospho-MYPT1 (Thr696) antibody.
# Human trabecular meshwork cells were seeded into 12-well plates at the density of 500,000 cells per well. 48 hours after seeding, cells were harvested with cell lysis buffer. Cell lysates were treated with ROCK activator or ROCK inhibitor before incubating with precoated strip-wells. The ROCK activity was then measured with the protocol of the kit. Three chemicals were used to activate ROCK: S1P (Sphingosine-1 phosphate at 1 μM), LPA (Oleoyl L-lysophosphatidic acid at 10 μM) and DMOG (Dimethyloxalylglycine at 0.5 mM). […] Data was presented as relative ROCK activity normalized to the no drug treated cell lysate.
compound,measurement,setting,value
"COC(=O)CNC(=O)C(=O)OC [DMOG, Dimethyloxalylglycine]",relative ROCK activity normalized to the no drug treated cell lysate,DMOG at 0.5 mM,increased
"CCCCCCCCCCCCC/C=C/[C@@H](O)[C@@H](N)COP(=O)(O)O [S1P, Sphingosine-1 phosphate]",relative ROCK activity normalized to the no drug treated cell lysate,S1P at 1 μM,increased
C[C@@H](N)[C@H]1CC[C@H](C(=O)Nc2ccncc2)CC1 [Y-27632],relative ROCK activity normalized to the no drug treated cell lysate,Y-27632 at 50 μM,decreased
Oleoyl L-lysophosphatidic acid [LPA],rank among the chemical ROCK activators,LPA 10 μM compared with S1P 1 μM and DMOG 0.5 mM,most potent activator
same,relative ROCK activity normalized to the no drug treated cell lysate,LPA at 10 μM,increased
